Reference: PubChem BioAssay (NCI)
Values joined by “and” are separate entries in the source; they are usually repeats but may differ in a detail not shown here. Identical values can stand only once.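 48-hour exposure; five concentrations; linearly interpolated endpoints. At the GI50, growth is halved. TGI is the concentration that stops growth completely.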

Assays:
Experiment in all cases: NCI-60 cell line screen, 48 h
MCF7 breast = system: MCF7 breast
NCI-H23 lung = system: NCI-H23 lung
SF-268 CNS = system: SF-268 CNS
OVCAR-3 ovarian = system: OVCAR-3 ovarian
UACC-257 melanoma = system: UACC-257 melanoma
MOLT-4 leukemia = system: MOLT-4 leukemia
HT29 colon = system: HT29 colon
PC-3 prostate = system: PC-3 prostate
UACC-62 melanoma = system: UACC-62 melanoma
SR leukemia = system: SR leukemia

COc1ccccc1CNCCCN1C(=O)c2ccc3c4c(ccc(c24)C1=O)C(=O)N(CCCNCCCCN)C3=O
GI50 (MCF7 breast): 0.202 µM
TGI (MCF7 breast): 0.555 µM
GI50 (NCI-H23 lung): 0.222 µM
TGI (NCI-H23 lung): 0.595 µM
GI50 (SF-268 CNS): 0.29 µM
TGI (SF-268 CNS): 1.68 µM
GI50 (OVCAR-3 ovarian): 0.304 µM
TGI (OVCAR-3 ovarian): 0.81 µM
GI50 (UACC-257 melanoma): 0.166 µM
TGI (UACC-257 melanoma): 0.317 µM
GI50 (MOLT-4 leukemia): 0.324 µM
TGI (MOLT-4 leukemia): 1.26 µM
GI50 (HT29 colon): 0.206 µM
TGI (HT29 colon): 0.695 µM
GI50 (PC-3 prostate): 0.307 µM
TGI (PC-3 prostate): 2.35 µM
GI50 (UACC-62 melanoma): 0.237 µM
TGI (UACC-62 melanoma): 0.674 µM
GI50 (SR leukemia): 0.0928 µM
TGI (SR leukemia): 0.82 µM

COc1cc(/C=C/C(=O)/C=C/c2ccc(-n3ccnc3)cc2)ccc1O
GI50 (MCF7 breast): 0.827 µM
TGI (MCF7 breast): 6.21 µM
GI50 (NCI-H23 lung): 2.07 µM
TGI (NCI-H23 lung): 5.04 µM
GI50 (SF-268 CNS): 3.08 µM
TGI (SF-268 CNS): 16.2 µM
GI50 (OVCAR-3 ovarian): 3.14 µM
TGI (OVCAR-3 ovarian): 10 µM
GI50 (UACC-257 melanoma): 3.21 µM
TGI (UACC-257 melanoma): 11.5 µM
GI50 (MOLT-4 leukemia): 3.22 µM
TGI (MOLT-4 leukemia): 42.8 µM
GI50 (HT29 colon): 1.97 µM
TGI (HT29 colon): 3.88 µM
GI50 (PC-3 prostate): 2.19 µM
TGI (PC-3 prostate): 5.4 µM
GI50 (UACC-62 melanoma): 5.01 µM
TGI (UACC-62 melanoma): 30.2 µM
GI50 (SR leukemia): 1.67 µM
TGI (SR leukemia): 9.24 µM

CNc1ccc(CSc2ccc(C)cc2)cc1
GI50 (MCF7 breast): 21.2 µM
TGI (MCF7 breast): > 100 µM
GI50 (NCI-H23 lung): 25 µM
TGI (NCI-H23 lung): > 100 µM
GI50 (SF-268 CNS): 14.7 µM
TGI (SF-268 CNS): > 100 µM
GI50 (OVCAR-3 ovarian): 11.7 µM
TGI (OVCAR-3 ovarian): > 100 µM
GI50 (UACC-257 melanoma): 36.1 µM
TGI (UACC-257 melanoma): > 100 µM
GI50 (MOLT-4 leukemia): 2.22 µM
TGI (MOLT-4 leukemia): 29.3 µM
GI50 (HT29 colon): 21.7 µM
TGI (HT29 colon): 77.8 µM
GI50 (PC-3 prostate): 13.2 µM
TGI (PC-3 prostate): > 100 µM
GI50 (UACC-62 melanoma): 17.3 µM
TGI (UACC-62 melanoma): 52.9 µM
GI50 (SR leukemia): 6.15 µM
TGI (SR leukemia): 90.1 µM

c1ccc(-c2nc3ccccc3[nH]2)c(OCCCCCOc2ccccc2-c2nc3ccccc3[nH]2)c1
GI50 (MCF7 breast): 2.3 µM
TGI (MCF7 breast): 7.51 µM
GI50 (NCI-H23 lung): 13.1 µM
TGI (NCI-H23 lung): 45.4 µM
GI50 (SF-268 CNS): 3.44 µM
TGI (SF-268 CNS): 23.2 µM
GI50 (OVCAR-3 ovarian): 12 µM
TGI (OVCAR-3 ovarian): 24.7 µM
GI50 (UACC-257 melanoma): 17.9 µM
TGI (UACC-257 melanoma): 65.3 µM
GI50 (MOLT-4 leukemia): 5.58 µM
TGI (MOLT-4 leukemia): 47.5 µM
GI50 (HT29 colon): 12.1 µM
TGI (HT29 colon): 44.1 µM
GI50 (PC-3 prostate): 7.64 µM
TGI (PC-3 prostate): 96.8 µM
GI50 (UACC-62 melanoma): 12.8 µM
TGI (UACC-62 melanoma): 27.6 µM
GI50 (SR leukemia): 2.27 µM
TGI (SR leukemia): 13.1 µM

Fc1cccc(C2ON=C(c3ccccc3)N2C23CC4CC(CC(C4)C2)C3)c1 (stereo not drawn)
TGI (MCF7 breast): > 10 µM
TGI (NCI-H23 lung): > 10 µM
TGI (SF-268 CNS): > 10 µM
TGI (OVCAR-3 ovarian): > 10 µM
TGI (UACC-257 melanoma): > 10 µM
TGI (MOLT-4 leukemia): > 10 µM
TGI (HT29 colon): > 10 µM
TGI (PC-3 prostate): > 10 µM
TGI (UACC-62 melanoma): > 10 µM
TGI (SR leukemia): > 10 µM

CN(C)CC(=O)N1CCc2c([nH]c3ccccc23)C1c1cccnc1 (stereo not drawn)
GI50 (MCF7 breast): 70.2 µM
TGI (MCF7 breast): > 100 µM
TGI (NCI-H23 lung): > 100 µM
TGI (SF-268 CNS): > 100 µM
TGI (OVCAR-3 ovarian): > 100 µM
TGI (UACC-257 melanoma): > 100 µM
TGI (MOLT-4 leukemia): > 100 µM
TGI (HT29 colon): > 100 µM
GI50 (PC-3 prostate): 93 µM
TGI (PC-3 prostate): > 100 µM
TGI (UACC-62 melanoma): > 100 µM
TGI (SR leukemia): > 100 µM

O=C(/C=C/c1ccccn1)c1ccccc1
GI50 (MCF7 breast): 2.07 µM
TGI (MCF7 breast): 8.46 µM
GI50 (NCI-H23 lung): 16.3 µM
TGI (NCI-H23 lung): 34.8 µM
GI50 (SF-268 CNS): 19.4 µM
TGI (SF-268 CNS): 36.4 µM
GI50 (OVCAR-3 ovarian): 9.5 µM
TGI (OVCAR-3 ovarian): 21.4 µM
GI50 (UACC-257 melanoma): 2.68 µM
TGI (UACC-257 melanoma): 9.25 µM
GI50 (MOLT-4 leukemia): 3.1 µM
TGI (MOLT-4 leukemia): 27.6 µM
GI50 (HT29 colon): 1.99 µM
TGI (HT29 colon): 4.3 µM
GI50 (PC-3 prostate): 4.22 µM
TGI (PC-3 prostate): 17 µM
GI50 (UACC-62 melanoma): 2.33 µM
TGI (UACC-62 melanoma): 7 µM
GI50 (SR leukemia): 1.96 µM
TGI (SR leukemia): 14.1 µM

COc1ccc(N=C2C(=O)Nc3ccc(Br)cc32)cc1
TGI (MCF7 breast): 35.2 µM
TGI (NCI-H23 lung): 45 µM
TGI (SF-268 CNS): 57.2 µM
TGI (OVCAR-3 ovarian): 62.4 µM
TGI (UACC-257 melanoma): 48.1 µM
TGI (MOLT-4 leukemia): 74.4 µM
TGI (HT29 colon): 58.1 µM
TGI (PC-3 prostate): > 100 µM
TGI (UACC-62 melanoma): 19.9 µM
TGI (SR leukemia): 28.6 µM

COc1cc(-c2ccc[nH]2)[nH]c1/C=C1\N=C(C)C(C(=O)NC(C)C)=C1C
GI50 (MCF7 breast): 2.82 µM
TGI (MCF7 breast): 12.3 µM
GI50 (NCI-H23 lung): 3.63 µM
TGI (NCI-H23 lung): 16 µM
GI50 (SF-268 CNS): 4.78 µM
TGI (SF-268 CNS): 18 µM
GI50 (OVCAR-3 ovarian): 3.03 µM
TGI (OVCAR-3 ovarian): 14.2 µM
GI50 (UACC-257 melanoma): 2.54 µM
TGI (UACC-257 melanoma): 6.42 µM
GI50 (MOLT-4 leukemia): 2.47 µM
TGI (MOLT-4 leukemia): 24 µM
GI50 (HT29 colon): 0.508 µM
TGI (HT29 colon): 10.8 µM
GI50 (PC-3 prostate): 4.67 µM
TGI (PC-3 prostate): 19.3 µM
GI50 (UACC-62 melanoma): 2.68 µM
TGI (UACC-62 melanoma): 6.77 µM
GI50 (SR leukemia): 2.17 µM
TGI (SR leukemia): 7.87 µM

COC(=O)c1sc(=S)c2sc(C(=O)OC)c(C(=O)OC)c2c1C(=O)OC
GI50 (MCF7 breast): 40 µM
TGI (MCF7 breast): > 100 µM
GI50 (NCI-H23 lung): 44.8 µM
TGI (NCI-H23 lung): > 100 µM
GI50 (SF-268 CNS): 58.8 µM
TGI (SF-268 CNS): > 100 µM
GI50 (OVCAR-3 ovarian): 35.5 µM
TGI (OVCAR-3 ovarian): > 100 µM
GI50 (UACC-257 melanoma): 26.8 µM
TGI (UACC-257 melanoma): 92 µM
GI50 (MOLT-4 leukemia): 36.9 µM
TGI (MOLT-4 leukemia): > 100 µM
GI50 (HT29 colon): 72.6 µM
TGI (HT29 colon): > 100 µM
GI50 (PC-3 prostate): 37.2 µM
TGI (PC-3 prostate): > 100 µM
GI50 (UACC-62 melanoma): 36 µM
TGI (UACC-62 melanoma): > 100 µM
GI50 (SR leukemia): 23.3 µM
TGI (SR leukemia): 48.2 µM

O=[N+]([O-])/C(=C/C=C/c1ccccc1)c1ccccc1
GI50 (MCF7 breast): 1.48 µM
TGI (MCF7 breast): 4.23 µM
GI50 (NCI-H23 lung): 2.25 µM
TGI (NCI-H23 lung): 6.16 µM
GI50 (SF-268 CNS): 2.96 µM
TGI (SF-268 CNS): 8.93 µM
GI50 (OVCAR-3 ovarian): 1.85 µM
TGI (OVCAR-3 ovarian): 3.29 µM
GI50 (UACC-257 melanoma): 2.74 µM
TGI (UACC-257 melanoma): 9.32 µM
GI50 (MOLT-4 leukemia): 1.47 µM
TGI (MOLT-4 leukemia): 3.61 µM
GI50 (HT29 colon): 3.23 µM
TGI (HT29 colon): 7.18 µM
GI50 (PC-3 prostate): 1.88 µM
TGI (PC-3 prostate): 4.29 µM
GI50 (UACC-62 melanoma): 1.55 µM
TGI (UACC-62 melanoma): 3.1 µM
GI50 (SR leukemia): 1.01 µM
TGI (SR leukemia): 4.05 µM

c1ccc2[nH]c(-c3cscn3)nc2c1
TGI (MCF7 breast): > 100 µM
TGI (NCI-H23 lung): > 100 µM
TGI (SF-268 CNS): > 100 µM
TGI (OVCAR-3 ovarian): > 100 µM
TGI (UACC-257 melanoma): > 100 µM
TGI (MOLT-4 leukemia): > 100 µM
TGI (HT29 colon): > 100 µM
TGI (PC-3 prostate): > 100 µM
TGI (UACC-62 melanoma): > 100 µM
GI50 (SR leukemia): > 100 µM and 38.7 µM
TGI (SR leukemia): > 100 µM

CN1CCC(C(=O)Nc2n[nH]c3nnc(-c4ccccc4)cc23)CC1
GI50 (MCF7 breast): 10.2 µM
TGI (MCF7 breast): > 25 µM
GI50 (NCI-H23 lung): > 25 µM
TGI (NCI-H23 lung): > 25 µM
GI50 (SF-268 CNS): > 25 µM
TGI (SF-268 CNS): > 25 µM
GI50 (OVCAR-3 ovarian): 10.1 µM
TGI (OVCAR-3 ovarian): > 25 µM
GI50 (UACC-257 melanoma): > 25 µM
TGI (UACC-257 melanoma): > 25 µM
GI50 (MOLT-4 leukemia): > 25 µM
TGI (MOLT-4 leukemia): > 25 µM
GI50 (HT29 colon): > 17.8 µM
TGI (HT29 colon): > 25 µM
GI50 (PC-3 prostate): > 22.7 µM
TGI (PC-3 prostate): > 25 µM
GI50 (UACC-62 melanoma): > 25 µM
TGI (UACC-62 melanoma): > 25 µM
GI50 (SR leukemia): > 25 µM
TGI (SR leukemia): > 25 µM

Cc1nc2sc(C(=O)Nc3cccc(Cl)c3)c(N)c2cc1C(O)c1ccccc1 (stereo not drawn)
GI50 (MCF7 breast): 0.373 µM
TGI (MCF7 breast): 16.9 µM
GI50 (NCI-H23 lung): 1.4 µM
TGI (NCI-H23 lung): 19.4 µM
GI50 (SF-268 CNS): 2.66 µM
TGI (SF-268 CNS): 28.3 µM
GI50 (OVCAR-3 ovarian): 0.587 µM
TGI (OVCAR-3 ovarian): 21.6 µM
GI50 (UACC-257 melanoma): 1.39 µM
TGI (UACC-257 melanoma): 22.2 µM
GI50 (MOLT-4 leukemia): 0.611 µM
TGI (MOLT-4 leukemia): > 100 µM
GI50 (HT29 colon): 0.387 µM
TGI (HT29 colon): > 100 µM
GI50 (PC-3 prostate): 2.78 µM
TGI (PC-3 prostate): 25.1 µM
GI50 (UACC-62 melanoma): 0.757 µM
TGI (UACC-62 melanoma): 16 µM
GI50 (SR leukemia): 0.414 µM
TGI (SR leukemia): > 100 µM
